Data published in patent US6753424B1, “Conjugates of DNA interacting groups with steroid hormones for use as nucleic acid transfection agents” (priority 1998, dated 2004).

Columns and labels:
[1] = test system: GR-GFP chimera; experiment: Nuclear Transfer Induction assay (NTI), monourethane ligands, HeLa cells; format: cell-based; settings: 1 hr
Experimental: Conditions: HeLa cells are transiently transfected by CaPO4 with an expression vector encoding a GR-GFP chimera (5 μg in transfection cocktail, 4 cm diameter dishes, DMEM with 3% FCS). After 24 hour expression, ligand is added for 1 hr and cells are fixed with formaldehyde (5 min 4° C.) and inspected by fluorescence microscopy. Fluorescent cells are counted and divided into different classes according to ‘cytoplasmic’ (C) versus ‘nuclear’ (N) localisation of fluorescence.
First column: “Conditions”: Name of compounds added (marked at top: ‘//ligand’), and their concentration (in parentheses) and assay number (01 through 21).
Values are given as percentage of cells displaying the corresponding localisatidn, within each tested condition the sum is 100%.

[2] = test system: GR-GFP chimera; experiment: Nuclear Transfer Induction assay (NTI), diurethane ligands, CV-1 cells; format: cell-based; settings: 4 hr
Experimental: Conditions: CV-1 cells are transiently transfected with DOTAP (Boehringer-Mannheim) with an expression vector encoding a GR-GFP chimera (see 8.1). After 36 hours expression, ligand is added for 4 hr and cells are fixed and counted as given in 8.1.

COC(=O)CCNC(=O)OCC(=O)[C@@]1(O)CCC2C3CCC4=CC(=O)CCC4(C)C3C(O)CC21C (some centres unmarked) [CL-C3-COOCH3, 2-carboxymethyl-ethyl-1-carboxamicacid-cortisol-21-ester]
C < N, percentage of cells ([1]; ligand 1.10-6M): 55%
C << N, percentage of cells ([1]; ligand 1.10-6M): 42%
C = N, percentage of cells ([1]; ligand 1.10-6M): 2%
C > N, percentage of cells ([1]; ligand 1.10-6M): 1%
C >> N, percentage of cells ([1]; ligand 1.10-6M): 0%
C < N, percentage of cells ([1]; ligand 1.10-7M): 50%
C << N, percentage of cells ([1]; ligand 1.10-7M): 18%
C = N, percentage of cells ([1]; ligand 1.10-7M): 21%
C > N, percentage of cells ([1]; ligand 1.10-7M): 1%
C >> N, percentage of cells ([1]; ligand 1.10-7M): 0%

CC12CCC(=O)C=C1CCC1C2C(O)CC2(C)C1CC[C@]2(O)C(=O)COC(=O)NCCC(=O)O (some centres unmarked) [CL-C3-COOH, 2-carboxy-ethyl-1-carboxamicacid-cortisol-21-ester]
C < N, percentage of cells ([1]; ligand 1.10-6M): 13%
C << N, percentage of cells ([1]; ligand 1.10-6M): 0%
C = N, percentage of cells ([1]; ligand 1.10-6M): 85%
C > N, percentage of cells ([1]; ligand 1.10-6M): 2%
C >> N, percentage of cells ([1]; ligand 1.10-6M): 0%
C < N, percentage of cells ([1]; ligand 1.10-7M): 2%
C << N, percentage of cells ([1]; ligand 1.10-7M): 0%
C = N, percentage of cells ([1]; ligand 1.10-7M): 43%
C > N, percentage of cells ([1]; ligand 1.10-7M): 55%
C >> N, percentage of cells ([1]; ligand 1.10-7M): 0%

COC(=O)CCCCCCCCCCNC(=O)OCC(=O)[C@@]1(O)CCC2C3CCC4=CC(=O)CCC4(C)C3C(O)CC21C (some centres unmarked) [CL-C11-COOCH3, 10-carboxymethyl-n-decy-1-carboxamicacid-cortisol-21-ester]
C < N, percentage of cells ([1]; ligand 1.10-6M): 60%
C << N, percentage of cells ([1]; ligand 1.10-6M): 13%
C = N, percentage of cells ([1]; ligand 1.10-6M): 24%
C > N, percentage of cells ([1]; ligand 1.10-6M): 3%
C >> N, percentage of cells ([1]; ligand 1.10-6M): 0%
C < N, percentage of cells ([1]; ligand 1.10-7M): 20%
C << N, percentage of cells ([1]; ligand 1.10-7M): 0%
C = N, percentage of cells ([1]; ligand 1.10-7M): 55%
C > N, percentage of cells ([1]; ligand 1.10-7M): 20%
C >> N, percentage of cells ([1]; ligand 1.10-7M): 5%

COC(=O)CCNC(=O)OCC(=O)[C@@]1(O)[C@H](C)CC2C3CCC4=CC(=O)C=CC4(C)[C@@]3(F)C(O)CC21C (some centres unmarked) [DEX-C3-COOCH3, 2-carboxymethyl-ethyl-1-carboxamicacid-dexamethasone-21-ester]
C < N, percentage of cells ([1]; ligand 1.10-7M): 25%
C << N, percentage of cells ([1]; ligand 1.10-7M): 75%
C = N, percentage of cells ([1]; ligand 1.10-7M): 0%
C > N, percentage of cells ([1]; ligand 1.10-7M): 0%
C >> N, percentage of cells ([1]; ligand 1.10-7M): 0%
C < N, percentage of cells ([1]; ligand 1.10-8M): 22%
C << N, percentage of cells ([1]; ligand 1.10-8M): 78%
C = N, percentage of cells ([1]; ligand 1.10-8M): 0%
C > N, percentage of cells ([1]; ligand 1.10-8M): 0%
C >> N, percentage of cells ([1]; ligand 1.10-8M): 0%

CC1CC2C3CCC4=CC(=O)C=CC4(C)C3(F)C(O)CC2(C)C1(O)C(=O)COC(=O)NCCOC(=O)NCCCNCCCCNCCCN (centres unmarked) [DEX-C4-Sn]
C < N, percentage of cells ([2]; ligand 5.10-6M): 27.6%
C << N, percentage of cells ([2]; ligand 5.10-6M): 69.5%
C = N, percentage of cells ([2]; ligand 5.10-6M): 2.9%
C > N, percentage of cells ([2]; ligand 5.10-6M): 0%
C >> N, percentage of cells ([2]; ligand 5.10-6M): 0%
C < N, percentage of cells ([2]; ligand 5.10-7M): 4.6%
C << N, percentage of cells ([2]; ligand 5.10-7M): 0.6%
C = N, percentage of cells ([2]; ligand 5.10-7M): 67.4%
C > N, percentage of cells ([2]; ligand 5.10-7M): 15.4%
C >> N, percentage of cells ([2]; ligand 5.10-7M): 12%
C < N, percentage of cells ([2]; ligand 5.10-8M): 1.1%
C << N, percentage of cells ([2]; ligand 5.10-8M): 0%
C = N, percentage of cells ([2]; ligand 5.10-8M): 43.3%
C > N, percentage of cells ([2]; ligand 5.10-8M): 35.8%
C >> N, percentage of cells ([2]; ligand 5.10-8M): 19.8%
C < N, percentage of cells ([2]; ligand 5.10-9M): 0%
C << N, percentage of cells ([2]; ligand 5.10-9M): 0%
C = N, percentage of cells ([2]; ligand 5.10-9M): 28.5%
C > N, percentage of cells ([2]; ligand 5.10-9M): 43.8%
C >> N, percentage of cells ([2]; ligand 5.10-9M): 27.7%

Cc1oc2c(C)c3oc(=O)cc(C)c3cc2c1CNC(=O)OCCCCCCNC(=O)OCC(=O)[C@@]1(O)[C@H](C)CC2C3CCC4=CC(=O)C=CC4(C)[C@@]3(F)C(O)CC21C (some centres unmarked) [DEX-C6-Pso]
C < N, percentage of cells ([2]; ligand 5.10-6M): 10%
C << N, percentage of cells ([2]; ligand 5.10-6M): 90%
C = N, percentage of cells ([2]; ligand 5.10-6M): 0%
C > N, percentage of cells ([2]; ligand 5.10-6M): 0%
C >> N, percentage of cells ([2]; ligand 5.10-6M): 0%
C < N, percentage of cells ([2]; ligand 5.10-7M): 6%
C << N, percentage of cells ([2]; ligand 5.10-7M): 94%
C = N, percentage of cells ([2]; ligand 5.10-7M): 0%
C > N, percentage of cells ([2]; ligand 5.10-7M): 0%
C >> N, percentage of cells ([2]; ligand 5.10-7M): 0%
C < N, percentage of cells ([2]; ligand 5.10-8M): 29.4%
C << N, percentage of cells ([2]; ligand 5.10-8M): 60.8%
C = N, percentage of cells ([2]; ligand 5.10-8M): 9.8%
C > N, percentage of cells ([2]; ligand 5.10-8M): 0%
C >> N, percentage of cells ([2]; ligand 5.10-8M): 0%
C < N, percentage of cells ([2]; ligand 5.10-9M): 38.3%
C << N, percentage of cells ([2]; ligand 5.10-9M): 22.6%
C = N, percentage of cells ([2]; ligand 5.10-9M): 35.7%
C > N, percentage of cells ([2]; ligand 5.10-9M): 3.5%
C >> N, percentage of cells ([2]; ligand 5.10-9M): 0%

COC(=O)CCCCCCCCCCNC(=O)OCC(=O)[C@@]1(O)[C@H](C)CC2C3CCC4=CC(=O)C=CC4(C)[C@@]3(F)C(O)CC21C (some centres unmarked) [DEX-C11-COOCH3, 10-carboxymethyl-n-decyl-1-carboxamicacid-dexamethasone-21-ester]
C < N, percentage of cells ([1]; ligand 1.10-6M): 50%
C << N, percentage of cells ([1]; ligand 1.10-6M): 45%
C = N, percentage of cells ([1]; ligand 1.10-6M): 5%
C > N, percentage of cells ([1]; ligand 1.10-6M): 0%
C >> N, percentage of cells ([1]; ligand 1.10-6M): 0%
C < N, percentage of cells ([1]; ligand 1.10-7M): 61%
C << N, percentage of cells ([1]; ligand 1.10-7M): 7%
C = N, percentage of cells ([1]; ligand 1.10-7M): 29%
C > N, percentage of cells ([1]; ligand 1.10-7M): 3%
C >> N, percentage of cells ([1]; ligand 1.10-7M): 0%

Cc1oc2c(C)c3oc(=O)cc(C)c3cc2c1CNC(=O)OCCCCCCCCCCCNC(=O)OCC(=O)[C@@]1(O)[C@H](C)CC2C3CCC4=CC(=O)C=CC4(C)[C@@]3(F)C(O)CC21C (some centres unmarked) [DEX-C11-Pso]
C < N, percentage of cells ([2]; ligand 5.10-6M): 53.1%
C << N, percentage of cells ([2]; ligand 5.10-6M): 45%
C = N, percentage of cells ([2]; ligand 5.10-6M): 1.9%
C > N, percentage of cells ([2]; ligand 5.10-6M): 0%
C >> N, percentage of cells ([2]; ligand 5.10-6M): 0%
C < N, percentage of cells ([2]; ligand 5.10-7M): 14.8%
C << N, percentage of cells ([2]; ligand 5.10-7M): 0%
C = N, percentage of cells ([2]; ligand 5.10-7M): 58.3%
C > N, percentage of cells ([2]; ligand 5.10-7M): 25.7%
C >> N, percentage of cells ([2]; ligand 5.10-7M): 1.3%
C < N, percentage of cells ([2]; ligand 5.10-8M): 1.9%
C << N, percentage of cells ([2]; ligand 5.10-8M): 0%
C = N, percentage of cells ([2]; ligand 5.10-8M): 52.9%
C > N, percentage of cells ([2]; ligand 5.10-8M): 37.1%
C >> N, percentage of cells ([2]; ligand 5.10-8M): 8.1%
C < N, percentage of cells ([2]; ligand 5.10-9M): 3.6%
C << N, percentage of cells ([2]; ligand 5.10-9M): 0%
C = N, percentage of cells ([2]; ligand 5.10-9M): 34.2%
C > N, percentage of cells ([2]; ligand 5.10-9M): 52.9%
C >> N, percentage of cells ([2]; ligand 5.10-9M): 9.4%
